Our source for the GI50 values is US20260159520A1, “HETEROBIFUNCTIONAL COMPOUNDS AND METHODS OF TREATING DISEASE” (Halda Therapeutics OpCo, Inc., priority 2022, published 2026).

What all share (type): cell-based
Assay [1] relates to T-Rex 293 cell line SC3 cells having increased expression of androgen receptor protein. The assay can be described thus: Cellular growth inhibition, T-Rex 293 SC3 cells with doxycycline (increased androgen receptor expression). The settings on record: with 10 ng/mL doxycycline (increased androgen receptor), 72 hours, CellTiter-Glo 2.0. The procedure: (§1) The following types of cells were prepared for this experiment: (i) a T-Rex 293 cell line having increased expression of androgen receptor protein due to exposure to doxycycline and (ii) a T-Rex 293 cell line lacking increased expression of androgen receptor protein. Ability of the test compounds to inhibit proliferation of the foregoing cell types was evaluated according to the procedures set forth below.
(§2) The doxycycline-inducible androgen receptor protein expressing cell line was established using the following protocol: T-Rex 293 cells were purchased from Invitrogen (Cat #R71007) and transfected using Lipofectamine 2000 with the wild-type androgen receptor protein sequence cloned into the pcDNA4/TO vector. Transfected cells were selected using 400 μg/mL Zeocin (Invitrogen Cat #R25001). Following selection, single clones were raised and maintained in Dulbecco's Modified Eagle Medium (DMEM) supplemented with 10% w/w Tetracycline-free fetal bovine serum (FBS) and 250 μg/mL Zeocin. Clones were analyzed for expression of androgen receptor protein in the presence and absence of 10 ng/mL doxycycline (Sigma Cat #D9891), and a single doxycycline-inducible clone (hereinafter “SC3”) was selected for use in downstream assays.
(§3) The SC3 cells were seeded on poly-D-lysine coated, black clear-bottom 384-well plates at 2500/well, in 25 μL Phenol Red Free Dulbecco's Modified Eagle Medium (DMEM) supplemented with 10% w/w charcoal-dextran treated fetal bovine serum (FBS) and 1% w/w pen-strep, with or without 10 ng/mL doxycycline. Pen-Strep is a commercially available mixture of penicillin G and streptomycin, which is used in mammalian cell culture media to prevent bacterial contamination. Phenol Red Free Dulbecco's Modified Eagle Medium (DMEM) supplemented with 10% w/w charcoal-dextran treated fetal bovine serum (FBS) and 1% w/w pen-strep, with or without 10 ng/mL doxycycline is herein referred to as Treatment Medium. Following seeding of cells in the plates, the plates were spun at 300×g for 30 seconds, then equilibrated to room temperature for 30 minutes, and then deposited in a humidified tissue culture incubator maintained at 37° C. with 5% CO2.
(§4) At 24 hours after seeding of the cells, dilutions of test compound were prepared in DMSO and dissolved in Treatment Medium, to achieve a final DMSO concentration of 0.5% w/w, thereby providing the Test Compound Solution. A 25 μL aliquot of the Test Compound Solution was added to cells in the well plates. An equal volume of a solution containing DMSO and Treatment Medium was used as a negative control. Following treatment of cells with Test Compound Solution or said equal volume of a solution containing DMSO and Treatment Medium, the plates were spun at 300×g for 30 seconds, and then left in an incubator for 72 hours.
(§5) At the end of the treatment duration, cell viability was quantified with CellTiter-Glo 2.0 reagent (Promega Cat #G9243). For this purpose, plates were equilibrated to room temperature for 30 minutes, and then 25 μL of CellTiter-Glo 2.0 reagent was added to cells in the plate wells. Plates were then agitated on a shaker for two minutes at 500 rpm and subsequently incubated at room temperature for 10 minutes. Following incubation, the plates were spun at 3000×g for 30 seconds, then sealed with an optical adhesive cover, and luminescence readings were measured with an EnVision Plate Reader.
(§6) Data was normalized using zero luminescence for baseline. A four-parameter non-linear regression curve fit was applied to dose-response data in GraphPad Prism data analysis software to determine the half-maximal growth inhibitory concentration (GI50) for each test compound.

In assay [2] the test system is T-Rex 293 cell line SC3 cells lacking increased expression of androgen receptor protein. In words: Cellular growth inhibition, T-Rex 293 SC3 cells without doxycycline. The settings on record: not exposed to doxycycline, 72 hours, CellTiter-Glo 2.0. The procedure: as §1, §2, §3, §4, §5, §6
In a further assay the test system is T47D cells. In words: Cellular growth inhibition assay for T47D cells. The settings on record: Homo sapiens, 72 hours, CellTiter-Glo 2.0. The method, then: (§7) T47D cells were purchased from American Type Cell Culture (ATCC Cat #HTB-133) and then seeded on poly-D-lysine coated, black clear-bottom 384-well plates at 3000/well in 25 μL Dulbecco's Modified Eagle Medium (DMEM) supplemented with 10% w/w Fetal bovine serum (FBS), 0.2 units/mL recombinant human insulin (Gibco Cat #12585014), and 1% w/w Pen-Strep. Pen-Strep is a commercially available mixture of penicillin G and streptomycin, which is used in mammalian cell culture media to prevent bacterial contamination. Dulbecco's Modified Eagle Medium (DMEM) supplemented with 10% w/w fetal bovine serum (FBS), 0.2 units/mL recombinant human insulin, and 1% w/w Pen-Strep is herein referred to as Treatment Medium. Following seeding of cells in the plates, the plates were spun at 300×g for 30 seconds, then equilibrated to room temperature for 30 minutes, and then deposited in a humidified tissue culture incubator maintained at 37° C. with 5% CO2.
as §4
as §5, with “Reader (Perkin Elmer).” for “Reader.”
as §6

A further assay concerns VCaP cells. In words: Cellular growth inhibition assay for VCaP cells. The conditions noted are these: Homo sapiens, 72 hours, CellTiter-Glo 2.0. The method, then:
as §7, with “VCaP” for “T47D”, “#CRL2876)” for “#HTB-133)”, “5000/well” for “3000/well”, “(FBS)” for “(FBS), 0.2 units/mL recombinant human insulin (Gibco Cat #12585014),”, “(FBS)” for “(FBS), 0.2 units/mL recombinant human insulin,”
as §4
as §5, with “Reader. Data was normalized using zero luminescence for baseline.” for “Reader.”
A four-parameter non-linear regression curve fit was applied to dose-response data in GraphPad Prism data analysis software to determine the half-maximal growth inhibitory concentration (GI50) for each test compound.

On to `CN(CCNS(=O)(=O)c1ccc(Nc2ncc(Br)c(Nc3cccc(F)c3C(N)=O)n2)cc1)c1ncc(C(=O)N[C@H]2C(C)(C)[C@H](Oc3ccc(C#N)c(Cl)c3)C2(C)C)cn1` [Compound I-18, 2-((2-((4-((5-bromo-4-((2-carbamoyl-3-fluorophenyl)amino)pyrimidin-2-yl)amino)phenyl)sulfonamido)ethyl)(methyl)amino)-N-((1r,3r)-3-(3-chloro-4-cyanophenoxy)-2,2,4,4-tetramethylcyclobutyl)pyrimidine-5-carboxamide], for which the results for the GI50 (in assay [1]; in assay [2]; in the assay with T47D cells) were 100 to 1000 nM, 100 to 1000 nM and less than 500 nM, respectively.
For the compound `CN(CCOCCOCCNS(=O)(=O)c1ccc(Nc2ncc(Br)c(Nc3cccc(F)c3C(N)=O)n2)cc1)c1ncc(C(=O)N[C@H]2C(C)(C)[C@H](Oc3ccc(C#N)c(Cl)c3)C2(C)C)cn1` [Compound I-19], the GI50 in assay [1] was greater than 3500 nM; in assay [2], greater than 3500 nM; in the assay with T47D cells it was less than 500 nM.
On to `CCc1cnn2c(NCc3ccc(OCCN4CCN(CC5CCN(c6ncc(C(=O)N[C@H]7C(C)(C)[C@H](Oc8ccc(C#N)c(Cl)c8)C7(C)C)cn6)CC5)CC4)nc3)cc(N3CCCCC3)nc12` [Compound I-48], for which the GI50 was 100 to 1000 nM in assay [1], greater than 3500 nM in assay [2], greater than 3500 nM in the assay on VCaP cells and 1500 to 3000 nM in the assay with T47D cells.
For `CCc1cnn2c(NCc3ccc(OCCCN4CCN(CC5CCN(c6ncc(C(=O)N[C@H]7C(C)(C)[C@H](Oc8ccc(C#N)c(Cl)c8)C7(C)C)cn6)CC5)CC4)nc3)cc(-c3ccccc3)nc12` [Compound I-49], the GI50 in assay [1] was 100 to 1000 nM; in assay [2] it was greater than 3500 nM; with VCaP cells, greater than 3500 nM; in the assay with T47D cells it was 1500 to 3000 nM.
Turning to `CCc1cnn2c(NCc3ccc(OCCCN4CCN(CC5CCN(c6ncc(C(=O)N[C@H]7C(C)(C)[C@H](Oc8ccc(C#N)c(Cl)c8)C7(C)C)cn6)CC5)CC4)nc3)cc(N3CCCCC3)nc12` [Compound I-50, N-((1 r,3r)-3-(3-chloro-4-cyanophenoxy)-2,2,4,4-tetramethylcyclobutyl)-2-(4-((4-(3-((5-(((3-ethyl-5-(piperidin-1-yl)pyrazolo[1,5-a]pyrimidin-7-yl)amino)methyl)pyridin-2-yl)oxy)propyl)piperazin-1-yl)methyl)piperidin-1-yl)pyrimidine-5-carboxamide], the GI50 in assay [1] is 100 to 1000 nM; in assay [2], greater than 3500 nM; in the assay with VCaP cells, greater than 3500 nM; in the assay on T47D cells, greater than 3000 nM.
Turning to `CCc1cnn2c(NCc3ccc(OCCC4CCN(CC5CCN(c6ncc(C(=O)N[C@H]7C(C)(C)[C@H](Oc8ccc(C#N)c(Cl)c8)C7(C)C)cn6)CC5)CC4)nc3)cc(N3CCCC[C@H]3CCO)nc12` [Compound I-52], the GI50 in assay [1] is less than 100 nM; in assay [2], 100 to 1000 nM; with VCaP cells it was less than 100 nM; with T47D cells, less than 500 nM.
For the compound `CCc1cnn2c(NCc3ccc(N4CC(N5CCC(N6CCN(c7ncc(C(=O)N[C@H]8C(C)(C)[C@H](Oc9ccc(C#N)c(Cl)c9)C8(C)C)cn7)CC6)CC5)C4)nc3)cc(N3CCCC[C@H]3CCO)nc12` [Compound I-64], the GI50 in assay [1] is less than 100 nM; in assay [2], less than 100 nM; in the assay with VCaP cells, less than 100 nM; with T47D cells, less than 500 nM.
On to `CCc1cnn2c(NCc3ccc(N4CC(N5CCN(C6CCN(c7ncc(C(=O)N[C@H]8C(C)(C)[C@H](Oc9ccc(C#N)c(Cl)c9)C8(C)C)cn7)CC6)CC5)C4)nc3)cc(N3CCCC[C@H]3CCO)nc12` [Compound I-65], for which the GI50 was less than 100 nM in assay [1], less than 100 nM in assay [2], less than 100 nM in the assay with VCaP cells and less than 500 nM in the assay with T47D cells.
In the case of `CCc1cnn2c(NCc3ccc(N(C)CCCN4CCN(C5CN(c6ncc(C(=O)N[C@H]7C(C)(C)[C@H](Oc8ccc(C#N)c(Cl)c8)C7(C)C)cn6)C5)CC4)nc3)cc(N3CCCC[C@H]3CCO)nc12` [Compound I-81], in the assay with T47D cells, the GI50 was less than 500 nM.
